± gives the expanded uncertainty stated by the source.
Assay: xn = mol fraction of the nth substance listed
Details: 101 kPa, Liquid; for speed of sound: Linear variable-path acoustic interferometer

## ClC(Cl)Cl [trichloromethane] + CCCCO
298.15 K, x1 = 0.0512
  speed of sound: 1215 ± 3 m/s
  mass density: 836.7 ± 0.54 kg/m3
  viscosity: 2.407 ± 0.032 mPa·s
298.15 K, x1 = 0.1
  speed of sound: 1198 ± 3 m/s
  mass density: 865.9 ± 0.57 kg/m3
  viscosity: 2.248 ± 0.03 mPa·s
298.15 K, x1 = 0.149
  speed of sound: 1180 ± 3 m/s
  mass density: 895.66 ± 0.6 kg/m3
  viscosity: 2.056 ± 0.027 mPa·s
298.15 K, x1 = 0.2009
  speed of sound: 1163 ± 3 m/s
  mass density: 927.49 ± 0.63 kg/m3
  viscosity: 1.872 ± 0.025 mPa·s
298.15 K, x1 = 0.2506
  speed of sound: 1146 ± 3 m/s
  mass density: 958.3 ± 0.66 kg/m3
  viscosity: 1.705 ± 0.023 mPa·s
298.15 K, x1 = 0.2999
  speed of sound: 1130 ± 3 m/s
  mass density: 989.27 ± 0.69 kg/m3
  viscosity: 1.543 ± 0.021 mPa·s
298.15 K, x1 = 0.3659
  speed of sound: 1110 ± 3 m/s
  mass density: 1031.4 ± 0.73 kg/m3
  viscosity: 1.351 ± 0.018 mPa·s
298.15 K, x1 = 0.407
  speed of sound: 1097 ± 3 m/s
  mass density: 1057.94 ± 0.76 kg/m3
  viscosity: 1.245 ± 0.017 mPa·s
298.15 K, x1 = 0.4515
  speed of sound: 1085 ± 3 m/s
  mass density: 1087.02 ± 0.79 kg/m3
  viscosity: 1.139 ± 0.016 mPa·s
298.15 K, x1 = 0.4997
  speed of sound: 1071 ± 3 m/s
  mass density: 1118.91 ± 0.82 kg/m3
  viscosity: 1.041 ± 0.014 mPa·s
298.15 K, x1 = 0.5502
  speed of sound: 1058 ± 3 m/s
  mass density: 1152.78 ± 0.86 kg/m3
  viscosity: 0.945 ± 0.013 mPa·s
298.15 K, x1 = 0.6012
  speed of sound: 1045 ± 3 m/s
  mass density: 1187.46 ± 0.89 kg/m3
  viscosity: 0.877 ± 0.013 mPa·s
298.15 K, x1 = 0.6527
  speed of sound: 1033 ± 3 m/s
  mass density: 1223.02 ± 0.93 kg/m3
  viscosity: 0.804 ± 0.012 mPa·s
298.15 K, x1 = 0.7021
  speed of sound: 1022 ± 3 m/s
  mass density: 1257.69 ± 0.97 kg/m3
  viscosity: 0.755 ± 0.011 mPa·s
298.15 K, x1 = 0.7519
  speed of sound: 1013 ± 3 m/s
  mass density: 1293.2 ± 1 kg/m3
  viscosity: 0.715 ± 0.011 mPa·s
298.15 K, x1 = 0.8021
  speed of sound: 1004 ± 3 m/s
  mass density: 1329.4 ± 1.1 kg/m3
  viscosity: 0.67 ± 0.011 mPa·s
298.15 K, x1 = 0.8518
  speed of sound: 997 ± 3 m/s
  mass density: 1365.91 ± 1.1 kg/m3
  viscosity: 0.654 ± 0.01 mPa·s
298.15 K, x1 = 0.9024
  speed of sound: 992 ± 3 m/s
  mass density: 1403.63 ± 1.1 kg/m3
  viscosity: 0.614 ± 0.01 mPa·s
298.15 K, x1 = 0.951
  speed of sound: 987 ± 3 m/s
  mass density: 1440.79 ± 1.2 kg/m3
  viscosity: 0.596 ± 0.01 mPa·s
298.15 K, x1 = 1
  speed of sound: 985 ± 3 m/s
  mass density: 1478.82 ± 1.2 kg/m3
  viscosity: 0.556 ± 0.01 mPa·s
308.15 K, x1 = 0.0512
  speed of sound: 1190 ± 3 m/s
  mass density: 828.27 ± 0.58 kg/m3
  viscosity: 1.883 ± 0.026 mPa·s
308.15 K, x1 = 0.1
  speed of sound: 1171 ± 3 m/s
  mass density: 857 ± 0.6 kg/m3
  viscosity: 1.764 ± 0.024 mPa·s
308.15 K, x1 = 0.149
  speed of sound: 1153 ± 3 m/s
  mass density: 886.25 ± 0.63 kg/m3
  viscosity: 1.628 ± 0.022 mPa·s
308.15 K, x1 = 0.2009
  speed of sound: 1134 ± 3 m/s
  mass density: 917.55 ± 0.66 kg/m3
  viscosity: 1.501 ± 0.021 mPa·s
308.15 K, x1 = 0.2506
  speed of sound: 1116 ± 3 m/s
  mass density: 947.84 ± 0.69 kg/m3
  viscosity: 1.372 ± 0.019 mPa·s
308.15 K, x1 = 0.2999
  speed of sound: 1099 ± 3 m/s
  mass density: 978.3 ± 0.72 kg/m3
  viscosity: 1.26 ± 0.017 mPa·s
308.15 K, x1 = 0.3659
  speed of sound: 1078 ± 3 m/s
  mass density: 1019.75 ± 0.76 kg/m3
  viscosity: 1.114 ± 0.016 mPa·s
308.15 K, x1 = 0.407
  speed of sound: 1065 ± 3 m/s
  mass density: 1045.83 ± 0.79 kg/m3
  viscosity: 1.035 ± 0.015 mPa·s
308.15 K, x1 = 0.4515
  speed of sound: 1051 ± 3 m/s
  mass density: 1074.42 ± 0.82 kg/m3
  viscosity: 0.957 ± 0.014 mPa·s
308.15 K, x1 = 0.4997
  speed of sound: 1037 ± 3 m/s
  mass density: 1105.67 ± 0.85 kg/m3
  viscosity: 0.886 ± 0.013 mPa·s
308.15 K, x1 = 0.5502
  speed of sound: 1024 ± 3 m/s
  mass density: 1138.99 ± 0.89 kg/m3
  viscosity: 0.815 ± 0.012 mPa·s
308.15 K, x1 = 0.6012
  speed of sound: 1011 ± 3 m/s
  mass density: 1173.05 ± 0.93 kg/m3
  viscosity: 0.76 ± 0.012 mPa·s
308.15 K, x1 = 0.6527
  speed of sound: 998 ± 3 m/s
  mass density: 1207.99 ± 0.96 kg/m3
  viscosity: 0.71 ± 0.011 mPa·s
308.15 K, x1 = 0.7021
  speed of sound: 987 ± 3 m/s
  mass density: 1241.99 ± 1 kg/m3
  viscosity: 0.67 ± 0.011 mPa·s
308.15 K, x1 = 0.7519
  speed of sound: 978 ± 3 m/s
  mass density: 1276.84 ± 1 kg/m3
  viscosity: 0.643 ± 0.01 mPa·s
308.15 K, x1 = 0.8021
  speed of sound: 969 ± 3 m/s
  mass density: 1312.4 ± 1.1 kg/m3
  viscosity: 0.607 ± 0.01 mPa·s
308.15 K, x1 = 0.8518
  speed of sound: 962 ± 2 m/s
  mass density: 1348.31 ± 1.1 kg/m3
  viscosity: 0.595 ± 0.01 mPa·s
308.15 K, x1 = 0.9024
  speed of sound: 956 ± 2 m/s
  mass density: 1385.4 ± 1.2 kg/m3
  viscosity: 0.565 ± 0.01 mPa·s
308.15 K, x1 = 0.951
  speed of sound: 952 ± 2 m/s
  mass density: 1421.97 ± 1.2 kg/m3
  viscosity: 0.546 ± 0.01 mPa·s
308.15 K, x1 = 1
  speed of sound: 950 ± 2 m/s
  mass density: 1459.45 ± 1.2 kg/m3
  viscosity: 0.513 ± 0.009 mPa·s
